Results reported in ChEMBL document CHEMBL1255445, “Evaluation of nucleoside hydrolase inhibitors for treatment of African trypanosomiasis” (Antimicrob Agents Chemother, 2010).
Active and inactive are the calls of the source. How the calls were made is not given here.

Molecular target: not listed separately
Assay: Inhibition of Trypanosoma brucei brucei inosine-adenosine-guanosine nucleoside hydrolase (IAG-NH)
Conditions: not given
With `O=c1[nH]cnc2c(CN3C[C@H](O)[C@H](O)[C@H]3CO)csc12` the Ki was 0.19 µM. Work on `Nc1nc2c(CN3C[C@H](O)[C@H](O)[C@H]3CO)cccc2s1` yielded a Ki of 0.56 µM. Work on `Nc1ncnc2c(C3N[C@H](CO)[C@@H](O)[C@H]3O)c[nH]c12` (stereo partly specified) [IMMUCILLIN A] yielded a Ki of 0.0009 µM.

Molecular target: not listed separately
Assay: Inhibition of Trypanosoma brucei brucei Inosine guanosine nucleoside hydrolase
Conditions: not given
With `O=c1[nH]cnc2c(CN3C[C@H](O)[C@H](O)[C@H]3CO)csc12` the Ki was 120 µM. In the case of `Nc1nc2c(CN3C[C@H](O)[C@H](O)[C@H]3CO)cccc2s1`, the Ki is reported as 14 µM. Compound `Nc1ncnc2c(C3N[C@H](CO)[C@@H](O)[C@H]3O)c[nH]c12` (stereo partly specified) [IMMUCILLIN A] has a Ki of 0.0044 µM.

Molecular target: not listed separately
Assay: Inhibition of Trypanosoma vivax Inosine-adenosine-guanosine-nucleoside hydrolase
Conditions: not given
In the case of `OC[C@@H]1[C@@H](O)[C@@H](O)CN1Cc1cccc2nccnc12`, the Ki is reported as 0.14 µM. Work on `O=c1[nH]cnc2c(CN3C[C@H](O)[C@H](O)[C@H]3CO)cccc12` yielded a Ki of 0.11 µM. Work on `O=c1[nH]cnc2c(CN3C[C@H](O)[C@H](O)[C@H]3CO)csc12` yielded a Ki of 0.02 µM. In the case of `Nc1nc2c(CN3C[C@H](O)[C@H](O)[C@H]3CO)cccc2s1`, the Ki is reported as 0.04 µM. With `Nc1ncnc2c(C3N[C@H](CO)[C@@H](O)[C@H]3O)c[nH]c12` (stereo partly specified) [IMMUCILLIN A] the Ki was 0.0062 µM.

Molecular target: not listed separately
Assay: Inhibition of human purine nucleoside phosphorylase
Conditions: not given
Work on `OC[C@@H]1[C@@H](O)[C@@H](O)CN1Cc1cccc2nccnc12` yielded a Ki greater than 1000 µM. For `O=c1[nH]cnc2c(CN3C[C@H](O)[C@H](O)[C@H]3CO)cccc12`, the Ki was greater than 1000 µM. In the case of `O=c1[nH]cnc2c(CN3C[C@H](O)[C@H](O)[C@H]3CO)csc12`, the Ki is reported as 77.6 µM. `Nc1nc2c(CN3C[C@H](O)[C@H](O)[C@H]3CO)cccc2s1` showed a Ki greater than 1000 µM. `Nc1ncnc2c(C3N[C@H](CO)[C@@H](O)[C@H]3O)c[nH]c12` (stereo partly specified) [IMMUCILLIN A] gave a Ki greater than 10 µM.

Test system: Trypanosoma cruzi
Assay: Antitrypanosomal activity against Trypanosoma cruzi Tulahuen CL2 s-galactosidase strain assessed as reduction in parasite growth after 3 days by fluorometrically
Assay type: functional, organism-based
Conditions: not given
For `OC[C@@H]1[C@@H](O)[C@@H](O)CN1Cc1cccc2nccnc12`, the Activity was “inactive”. For `O=c1[nH]cnc2c(CN3C[C@H](O)[C@H](O)[C@H]3CO)cccc12`, the Activity was “inactive”. In the case of `O=c1[nH]cnc2c(CN3C[C@H](O)[C@H](O)[C@H]3CO)csc12`, the Activity is reported as “inactive”. For `Nc1nc2c(CN3C[C@H](O)[C@H](O)[C@H]3CO)cccc2s1`, the Activity was “inactive”. For `Nc1ncnc2c(C3N[C@H](CO)[C@@H](O)[C@H]3O)c[nH]c12` (stereo partly specified) [IMMUCILLIN A], the Activity was “inactive”.

Test system: Leishmania infantum
Assay: Antileishmanial activity against Leishmania infantum MHOM/MA/67/ITMAP263 intracellular amastigotes assessed as reduction in parasite growth after 3 days by fluorometrically
Assay type: functional, organism-based
Conditions: not given
In the case of `OC[C@@H]1[C@@H](O)[C@@H](O)CN1Cc1cccc2nccnc12`, the Activity is reported as “inactive”. With `O=c1[nH]cnc2c(CN3C[C@H](O)[C@H](O)[C@H]3CO)cccc12` the Activity was “inactive”. In the case of `O=c1[nH]cnc2c(CN3C[C@H](O)[C@H](O)[C@H]3CO)csc12`, the Activity is reported as “inactive”. With `Nc1nc2c(CN3C[C@H](O)[C@H](O)[C@H]3CO)cccc2s1` the Activity was “inactive”. For `Nc1ncnc2c(C3N[C@H](CO)[C@@H](O)[C@H]3O)c[nH]c12` (stereo partly specified) [IMMUCILLIN A], the Activity was “inactive”.

Test system: not listed separately
Assay: Cytotoxicity against human MRC5 SV2 cells after 48 hrs
Assay type: cell-based
Conditions: MRC5, 48 h
`O=c1[nH]cnc2c(CN3C[C@H](O)[C@H](O)[C@H]3CO)csc12` gave an IC50 greater than 64 µM. Compound `Nc1nc2c(CN3C[C@H](O)[C@H](O)[C@H]3CO)cccc2s1` has an IC50 greater than 64 µM. `Nc1ncnc2c(C3N[C@H](CO)[C@@H](O)[C@H]3O)c[nH]c12` (stereo partly specified) [IMMUCILLIN A] gave an IC50 greater than 64 µM.

Test system: Trypanosoma brucei brucei
Assay: Antitrypanosomal activity against suramin sensitive Trypanosoma brucei brucei Lister 427 assessed as reduction in parasite growth after 3 days by fluorometrically
Assay type: functional, organism-based
Conditions: Lister 427, 72 h
Work on `OC[C@@H]1[C@@H](O)[C@@H](O)CN1Cc1cccc2nccnc12` yielded an IC50 greater than 64 µM. Work on `O=c1[nH]cnc2c(CN3C[C@H](O)[C@H](O)[C@H]3CO)cccc12` yielded an IC50 greater than 64 µM. With `O=c1[nH]cnc2c(CN3C[C@H](O)[C@H](O)[C@H]3CO)csc12` the IC50 was greater than 34 µM. With `Nc1nc2c(CN3C[C@H](O)[C@H](O)[C@H]3CO)cccc2s1` the IC50 was greater than 64 µM. `Nc1ncnc2c(C3N[C@H](CO)[C@@H](O)[C@H]3O)c[nH]c12` (stereo partly specified) [IMMUCILLIN A] gave an IC50 greater than 64 µM.

Test system: Plasmodium falciparum
Assay: Antiparasitic activity against chloroquine-sensitive Plasmodium falciparum Ghana assessed as reduction in parasite growth after 3 days by fluorimetry
Assay type: functional, organism-based
Conditions: not given
In the case of `OC[C@@H]1[C@@H](O)[C@@H](O)CN1Cc1cccc2nccnc12`, the Activity is reported as “inactive”. For `O=c1[nH]cnc2c(CN3C[C@H](O)[C@H](O)[C@H]3CO)cccc12`, the Activity was “inactive”. In the case of `O=c1[nH]cnc2c(CN3C[C@H](O)[C@H](O)[C@H]3CO)csc12`, the Activity is reported as “inactive”. In the case of `Nc1nc2c(CN3C[C@H](O)[C@H](O)[C@H]3CO)cccc2s1`, the Activity is reported as “inactive”. For `Nc1ncnc2c(C3N[C@H](CO)[C@@H](O)[C@H]3O)c[nH]c12` (stereo partly specified) [IMMUCILLIN A], the Activity was “inactive”.

Molecular target: not listed separately
Assay: Inhibition of Trypanosoma brucei brucei Lister 427 Nucleoside transporter P1 by scintillation counting
Conditions: not given
`O=c1[nH]cnc2c(CN3C[C@H](O)[C@H](O)[C@H]3CO)csc12` gave a Ki of 300 µM. Compound `Nc1nc2c(CN3C[C@H](O)[C@H](O)[C@H]3CO)cccc2s1` has a Ki of 810 µM.
